A word on the EC50: it is the concentration needed to bring the measured effect to its halfway point.

In patent US20080188481A1 (priority 2002, published 2008) one finds EC50 data, which are given here for 30 compounds.

The assay deals with HIV-1 single-round infectious reporter virus. Put plainly: Single-round infectious HIV-1 luciferase reporter virus infection of HeLa CD4 cells (antiviral EC50). Type of assay: cell-based. To be noted: Human immunodeficiency virus 1, HeLa, 72 h, read-out: EC50 Group from Table 1. The procedure:
• Virus production—Human embryonic Kidney cell line, 293T, was propagated in Dulbecco's Modified Eagle Medium (Invitrogen, Carlsbad, Calif.) containing 10% fetal Bovine serum (FBS, Sigma, St. Louis, Mo.). • Virus infection—Human epithelial cell line, HeLa, expressing the HIV-1 receptor CD4 was propagated in Dulbecco's Modified Eagle Medium (Invitrogen, Carlsbad, Calif.) containing 10% fetal Bovine serum (FBS, Sigma, St. Louis, Mo.) and supplemented with 0.2 mg/mL Geneticin (Invitrogen, Carlsbad, Calif.). Virus-Single-round infectious reporter virus was produced by co-transfecting human embryonic Kidney 293 cells with an HIV-1 envelope DNA expression vector and a proviral cDNA containing an envelope deletion mutation and the luciferase reporter gene inserted in place of HIV-1 nef sequences (Chen et al, Ref. 41). Transfections were performed using lipofectAMINE PLUS reagent as described by the manufacturer (Invitrogen, Carlsbad, Calif.).
• 1. HeLa CD4 cells were plated in 96 well plates at a cell density of 1×10^4 cells per well in 100 μl Dulbecco's Modified Eagle Medium containing 10% fetal Bovine serum and incubated overnight. • 2. Compound was added in a 2 μl dimethylsulfoxide solution, so that the final assay concentration would be ≦10 μM. • 3. 100 μl of single-round infectious reporter virus in Dulbecco's Modified Eagle Medium was then added to the plated cells and compound at an approximate multiplicity of infection (MOI) of 0.01, resulting in a final volume of 200 μl per well. • 4. Virally-infected cells were incubated at 37 degrees Celsius, in a CO2 incubator, and harvested 72 h after infection. • 5. Viral infection was monitored by measuring luciferase expression from viral DNA in the infected cells using a luciferase reporter gene assay kit, as described by the manufacturer (Roche Molecular Biochemicals, Indianapolis, Ind.). Infected cell supernatants were removed and 50 μl of lysis buffer was added per well. After 15 minutes, 50 μl of freshly-reconstituted luciferase assay reagent was added per well. Luciferase activity was then quantified by measuring luminescence using a Wallac microbeta scintillation counter. • 6. The percent inhibition for each compound was calculated by quantifying the level of luciferase expression in cells infected in the presence of each compound as a percentage of that observed for cells infected in the absence of compound and subtracting such a determined value from 100. • 7. An EC50 provides a method for comparing the antiviral potency of the compounds of this invention. The effective concentration for fifty percent inhibition (EC50) was calculated with the Microsoft Excel Xlfit curve fitting software. For each compound, curves were generated from percent inhibition calculated at 10 different concentrations by using a four paramenter logistic model (model 205). Table 1 is the key for the data in Table 2.
A general note: A reporter such as luciferase makes a cellular process visible.

Bounds are passed on as bounds.

Turning to `COc1cnc(-n2ccc(C)n2)c2[nH]cc(C(=O)C(=O)N3CCC(=C(c4ccccc4)c4cnccn4)CC3)c12` [Example 96], the half-maximal effective concentration (EC50) was under 1000 nM.

Take `COc1cnc(-c2cnccn2)c2[nH]cc(C(=O)C(=O)N3CCC(=C(c4ccccc4)c4cnco4)CC3)c12` [Example 92]: the 50% effective concentration (EC50) was under 1000 nM.

Regarding `COc1ncc(OC)c2c(C(=O)C(=O)N3CCC(=C(C#N)c4coc5ccccc45)CC3)c[nH]c12` [Example 127, 1-[4-(1-Cyano-1-benzofuran-3-yl-methylene)-piperidin-1-yl]-2-(4,7-dimethoxy-6-azaindol-3-yl)-ethane-1,2-dione], the EC50 is under 1000 nM.

For `COc1cnc(-c2cnccn2)c2[nH]cc(C(=O)C(=O)N3CCC(=C(c4ccccc4)c4nnc(C)o4)CC3)c12` [Example 72, 1-[4-(1-Phenyl-1-(5-methyl-1,3,4-oxadiazol-2-yl)-methylene)-piperidin-1-yl]-2-(4-methoxy-7-pyrazinyl-6-azaindol-3-yl)-ethane-1,2-dione], the half-maximal effective concentration (EC50) was under 1000 nM.

For the compound `N#CC(=C1CCN(C(=O)C(=O)c2c[nH]c3c(-c4cnccn4)ccnc23)CC1)c1ccccc1` [Example 102, {1-[2-Oxo-2-(7-pyrazin-2-yl-1H-pyrrolo[3,2-b]pyridin-3-yl)-acetyl]-piperidin-4-ylidene}-phenyl-acetonitrile], the EC50 is under 1000 nM.

As for `CCOC(=O)c1cc(C(=C2CCN(C(=O)C(=O)c3c[nH]c4c(-n5cnc(C)n5)ncc(OC)c34)CC2)c2ccccc2)n[nH]1` [Example 87], the EC50 was under 1000 nM.

For the compound `COc1ccccc1C(=C1CCN(C(=O)C(=O)c2c[nH]c3c(OC)ncc(OC)c23)CC1)c1ccccc1` [Example 65], the EC50 is under 1000 nM.

Consider `CCOC(=O)c1cncc(C(=C2CCN(C(=O)C(=O)c3c[nH]c4c(-n5cnc(C)n5)ncc(OC)c34)CC2)c2ccccc2)c1` [Example 121], for which the EC50 was under 1000 nM.

Regarding `COc1cnc(-c2cnccn2)c2[nH]cc(C(=O)C(=O)N3CCC(=C(c4ccccc4)c4cnccn4)CC3)c12` [Example 70, 1-[4-(1-Phenyl-1-(pyrazinyl)-methylene)-piperidin-1-yl]-2-(4-methoxy-7-pyrazinyl-6-azaindol-3-yl)-ethane-1,2-dione], the EC50 is under 1000 nM.

In the case of `COc1ncc(OC)c2c(C(=O)C(=O)N3CCC(=C(C#N)c4nc5ccccc5[nH]4)CC3)c[nH]c12` [Example 23], the EC50 was under 1000 nM.

For the compound `COc1ncc(OC)c2c(C(=O)C(=O)N3CCC(=C(C(N)=O)c4ccccc4)CC3)c[nH]c12` [Example 47], the EC50 was under 1000 nM.

`COc1ncc(OC)c2c(C(=O)C(=O)N3CCC(=C(Br)c4ccccc4)CC3)c[nH]c12` [Example 48a, 1-[4-(1-Bromo-1-phenyl-methylene)-piperidin-1-yl]-2-(4,7-dimethoxy-6-azaindol-3-yl)-ethane-1,2-dione]: the EC50 was under 1000 nM.

For `COc1cnc(-n2cnc(C)n2)c2[nH]cc(C(=O)C(=O)N3CCC(=C(c4ccccc4)c4nnc(C5CCC5)o4)CC3)c12` [Example 133, 1-[4-(1-Phenyl-1-(5-cyclobutyl-1,3,4-oxadiazol-2-yl)-methylene)-piperidin-1-yl]-2-[4-methoxy-7-(3-methyl-1,2,4-triazol-1-yl)-6-azaindol-3-yl]-ethane-1,2-dione], the EC50 is under 1000 nM.

As for `COc1ncc(OC)c2c(C(=O)C(=O)N3CCC(=C(C#CC(C)C)c4ccccc4)CC3)c[nH]c12` [Example 114, 1-[4-(1-Phenyl-1-(2-isopropylethyn-1-yl)-methylene)-piperidin-1-yl]-2-(4,7-dimethoxy-6-azaindol-3-yl)-ethane-1,2-dione], the EC50 was under 1000 nM.

Consider `COc1cnc(-n2ccnn2)c2[nH]cc(C(=O)C(=O)N3CCC(=C(c4ccccc4)c4nnco4)CC3)c12` [Example 132, 1-[4-(1-Phenyl-1-(1,3,4-oxadiazol-2-yl)-methylene)-piperidin-1-yl]-2-[4-methoxy-7-(1,2,3-triazol-1-yl)-6-azaindol-3-yl]-ethane-1,2-dione], for which the concentration for a half-maximal effect (EC50) was under 1000 nM.

For `COc1cnc(-n2cnc(C)n2)c2[nH]cc(C(=O)C(=O)N3CCC(=C(c4ccccc4)c4nnc(C(C)C)o4)CC3)c12` [Example 81, 1-[4-(1-Phenyl-1-(5-isopropyl-1,3,4-oxadiazol-2-yl)-methylene)-piperidin-1-yl]-2-[4-methoxy-7-(3-methyl-1,2,4-triazol-1-yl)-6-azaindol-3-yl]-ethane-1,2-dione], the EC50 was under 1000 nM.

As for `COc1cnc(-n2cnc(C)n2)c2[nH]cc(C(=O)C(=O)N3CCC(=C(c4ccccc4)c4cccc(CO)c4)CC3)c12` [Example 84, 1-[4-(1-Phenyl-1-(3-hydroxymethylphenyl)-methylene)-piperidin-1-yl]-2-[4-methoxy-7-(3-methyl-1,2,4-triazol-1-yl)-6-azaindol-3-yl]-ethane-1,2-dione], the EC50 was under 1000 nM.

With `Cc1nnc(C(=C2CCN(C(=O)C(=O)c3c[nH]c4c(Cl)ccnc34)CC2)c2ccccc2)o1` [Example 108, 1-(7-Chloro-1H-pyrrolo[3,2-b]pyridin-3-yl)-2-{4-[(5-methyl-[1,3,4]oxadiazol-2-yl)-phenyl-methylene]-piperidin-1-yl}-ethane-1,2-dione], the concentration giving a half-maximal response (EC50) is under 1000 nM.

Regarding `COc1cnc(-c2cnccn2)c2[nH]cc(C(=O)C(=O)N3CCC(=C(c4ccccc4)c4nccs4)CC3)c12` [Example 90], the EC50 was under 1000 nM.

Turning to `COc1ncc(OC)c2c(C(=O)C(=O)N3CCC(=C(c4ccccc4)c4cccc(SC)c4)CC3)c[nH]c12` [Example 68], the half-maximal effective concentration (EC50) is under 1000 nM.

In the case of `COc1cnc(-n2cnc(C)n2)c2[nH]cc(C(=O)C(=O)N3CCC(=C(c4ccccc4)c4cc(F)cc(F)c4)CC3)c12` [Example 85, 1-[4-(1-Phenyl-1-(3,5-difluorophenyl)-methylene)-piperidin-1-yl]-2-[4-methoxy-7-(3-methyl-1,2,4-triazol-1-yl)-6-azaindol-3-yl]-ethane-1,2-dione], the EC50 is under 1000 nM.

As to `COc1cnc(-c2cnccn2)c2[nH]cc(C(=O)C(=O)N3CCC(=C(c4ccccc4)c4cccnc4)CC3)c12` [Example 71, 1-[4-(1-Phenyl-1-(pyridin-3-yl)-methylene)-piperidin-1-yl]-2-(4-methoxy-7-pyrazinyl-6-azaindol-3-yl)-ethane-1,2-dione], the EC50 was under 1000 nM.

Consider `COc1ncc(OC)c2c(C(=O)C(=O)N3CCC(=C(C#N)c4cncs4)CC3)c[nH]c12` [Example 124, 1-[4-(1-Cyano-1-thiazol-5-yl-methylene)-piperidin-1-yl]-2-(4,7-dimethoxy-6-azaindol-3-yl)-ethane-1,2-dione], for which the EC50 is under 1000 nM.

On to `COc1cnc(-c2cc(C)n[nH]2)c2[nH]cc(C(=O)C(=O)N3CCC(=C(c4ccccc4)c4nnc(C)o4)CC3)c12` [Example 140, 1-[4-(1-Phenyl-1-(5-methyl-1,3,4-oxadiazol-2-yl)-methylene)-piperidin-1-yl]-2-(4-methoxy-7-(5-methylpyrazole-3-yl)-6-azaindol-3-yl)-ethane-1,2-dione], for which the concentration giving a half-maximal response (EC50) was under 1000 nM.

As for `COc1ncc(OC)c2c(C(=O)C(=O)N3CCC(=C(c4ccccc4)c4cnccn4)CC3)c[nH]c12` [Example 56], the EC50 was under 1000 nM.

Regarding `COc1cnc(Cl)c2[nH]cc(C(=O)C(=O)N3CCC(=C(F)c4ccccc4)CC3)c12` [Example 21], the EC50 is under 1000 nM.

`COc1ncc(OC)c2c(C(=O)C(=O)N3CCC(=C(C#CC(=O)O)c4ccccc4)CC3)c[nH]c12` [Example 119, 1-[4-(1-Phenyl-1-(2-carboxyethyn-1-yl)-methylene)-piperidin-1-yl]-2-(4,7-dimethoxy-6-azaindol-3-yl)-ethane-1,2-dione]: the EC50 was under 1000 nM.

As for `COc1cnc(-n2cnc(C)n2)c2[nH]cc(C(=O)C(=O)N3CCC(=C(c4ccccc4)c4nnc(C5CC5)o4)CC3)c12` [Example 82, 1-[4-(1-Phenyl-1-(5-cyclopropyl-1,3,4-oxadiazol-2-yl)-methylene)-piperidin-1-yl]-2-[4-methoxy-7-(3-methyl-1,2,4-triazol-1-yl)-6-azaindol-3-yl]-ethane-1,2-dione], the EC50 is under 1000 nM.

`COc1ncc(OC)c2c(C(=O)C(=O)N3CCC(=C(F)c4ccccc4)CC3)c[nH]c12` [Example 9]: the EC50 was under 1000 nM.

Turning to `COc1cnc(Cl)c2[nH]cc(C(=O)C(=O)N3CCC(=C(C(N)=O)c4ccccc4)CC3)c12` [Example 48], the EC50 fell in the range of 1000 to 5000 nM.
